Consider 22 compounds from patent US10196393B2, “JAK inhibitors containing a 4-membered heterocyclic amide” (THERAVANCE BIOPHARMA R&D IP, LLC, priority 2017, dated 2019).

Test [1] deals with IL-13 induced STAT6 phosphorylation in BEAS-2B human lung epithelial cells. The test can be described thus: Cellular JAKI potency assay (AlphaScreen), BEAS-2B. The settings on record: BEAS-2B cells. The class given is cell-based. The procedure:
Assay 2: Cellular JAKI Potency Assay
The AlphaScreen JAKI cellular potency assay was carried out by measuring interleukin-13 (IL-13, R&D Systems) induced STAT6 phosphorylation in BEAS-2B human lung epithelial cells (ATCC). The anti-STAT6 antibody (Cell Signaling Technologies) was conjugated to AlphaScreen acceptor beads (Perkin Elmer), while the anti-pSTAT6 (pTyr641) antibody (Cell Signaling Technologies) was biotinylated using EZ-Link Sulfo-NHS-Biotin (Thermo Scientific).
BEAS-2B cells were grown at 37° C. in a 5% CO2 humidified incubator in 50% DMEM/50% F-12 medium (Life Technologies) supplemented with 10% FBS (Hyclone), 100 U/mL penicillin, 100 μg/mL streptomycin (Life Technologies), and 2 mM GlutaMAX (Life Technologies). On day 1 of the assay, cells were seeded at a 7,500 cells/well density in white poly-D-lysine-coated 384-well plates (Corning) with 25 μL medium, and were allowed to adhere overnight in the incubator. On day 2 of the assay, the medium was removed and replaced with 12 μL of assay buffer (Hank's Balanced Salt Solution/HBSS, 25 mM HEPES, and 1 mg/ml bovine serum albumin/BSA) containing dose-responses of test compounds. Compounds were serially diluted in DMSO and then diluted another 1000-fold in media to bring the final DMSO concentration to 0.1%. Cells were incubated with test compounds at 37° C. for 1 h, and followed by the addition of 12 μl of pre-warmed IL-13 (80 ng/mL in assay buffer) for stimulation. After incubating at 37° C. for 30 min, the assay buffer (containing compound and IL-13) was removed, and 10 μL of cell lysis buffer (25 mM HEPES, 0.1% SDS, 1% NP-40, 5 mM MgCl2, 1.3 mM EDTA, 1 mM EGTA, and supplement with Complete Ultra mini protease inhibitors and PhosSTOP from Roche Diagnostics). The plates were shaken at ambient temperature for 30 min before the addition of detection reagents. A mixture of biotin-anti-pSTAT6 and anti-STAT6 conjugated acceptor beads was added first and incubated at ambient temperature for 2 h, followed by the addition of streptavidin conjugated donor beads (Perkin Elmer). After a minimum of 2 h incubation, the assay plates were read on the EnVision plate reader. AlphaScreen luminescence signals were recorded and utilized to calculate the percent inhibition values based on DMSO and background controls.
For dose-response analysis, percent inhibition data were plotted vs. compound concentrations, and IC50 values were determined from a 4-parameter robust fit model with the Prism software. Results may also be expressed as the negative logarithm of the IC50 value, pIC50.
Test compounds having a lower IC50 value or higher pIC50 value in this assay show greater inhibition of IL-13 induced STAT6 phosphorylation.

For test [2], the system named is IL-13 induced pSTAT6 induction in lung tissue. In words: Murine model of IL-13 induced pSTAT6 induction in lung tissue. The format is in vivo. As to conditions: mouse lung, 1 mg/mL 50 μL oral aspiration, IL-13 challenge 4 h after dose, lungs at 5 hours. The text has this:
Assay 4: Murine (Mouse) Model of IL-13 Induced pSTAT6 Induction in Lung Tissue
Il-13 is an important cytokine underlying the pathophysiology of asthma (Kudlacz et al. Eur. J. Pharmacol, 2008, 582,154-161). IL-13 binds to cell surface receptors activating members of the Janus family of kinases (JAK) which then phosphorylate STAT6 and subsequently activates further transcription pathways. In the described model, a dose of IL-13 was delivered locally into the lungs of mice to induce the phosphorylation of STAT6 (pSTAT6) which is then measured as the endpoint.
Adult balb/c mice from Harlan were used in the assay. On the day of study, animals were lightly anesthetized with isoflurane and administered either vehicle or test compound (1 mg/mL, 50 μL total volume over several breaths) via oral aspiration. Animals were placed in lateral recumbency post dose and monitored for full recovery from anesthesia before being returned to their home cage. Four hours later, animals were once again briefly anesthetized and challenged with either vehicle or IL-13 (0.03 μg total dose delivered, 50 μL total volume) via oral aspiration before being monitored for recovery from anesthesia and returned to their home cage. One hour after vehicle or IL-13 administration, lungs were collected for both pSTAT6 detection using an anti-pSTAT6 ELISA (rabbit mAb capture/coating antibody; mouse mAb detection/report antibody: anti-pSTAT6-pY641; secondary antibody: anti-mouse IgG-HRP) and analyzed for total drug concentration as described above in Assay 3.
Selected compounds of the invention were tested in the assay. Activity in the model is evidenced by a decrease in the level of pSTAT6 present in the lungs of treated animals at 5 hours compared to the vehicle treated, IL-13 challenged control animals. The difference between the control animals which were vehicle-treated, IL-13 challenged and the control animals which were vehicle-treated, vehicle challenged dictated the 0% and 100% inhibitory effect, respectively, in any given experiment.

The target of test [3] is JAK1 (Homo sapiens (Human), UniProt P23458). In words: Biochemical JAK kinase assay (LanthaScreen), JAK1. As to conditions: converted from pIC50 with Cheng-Prusoff equation. The protocol: (§1) Assay 1: Biochemical JAK Kinase Assays
JAK1, sequence (P23458 whole entry): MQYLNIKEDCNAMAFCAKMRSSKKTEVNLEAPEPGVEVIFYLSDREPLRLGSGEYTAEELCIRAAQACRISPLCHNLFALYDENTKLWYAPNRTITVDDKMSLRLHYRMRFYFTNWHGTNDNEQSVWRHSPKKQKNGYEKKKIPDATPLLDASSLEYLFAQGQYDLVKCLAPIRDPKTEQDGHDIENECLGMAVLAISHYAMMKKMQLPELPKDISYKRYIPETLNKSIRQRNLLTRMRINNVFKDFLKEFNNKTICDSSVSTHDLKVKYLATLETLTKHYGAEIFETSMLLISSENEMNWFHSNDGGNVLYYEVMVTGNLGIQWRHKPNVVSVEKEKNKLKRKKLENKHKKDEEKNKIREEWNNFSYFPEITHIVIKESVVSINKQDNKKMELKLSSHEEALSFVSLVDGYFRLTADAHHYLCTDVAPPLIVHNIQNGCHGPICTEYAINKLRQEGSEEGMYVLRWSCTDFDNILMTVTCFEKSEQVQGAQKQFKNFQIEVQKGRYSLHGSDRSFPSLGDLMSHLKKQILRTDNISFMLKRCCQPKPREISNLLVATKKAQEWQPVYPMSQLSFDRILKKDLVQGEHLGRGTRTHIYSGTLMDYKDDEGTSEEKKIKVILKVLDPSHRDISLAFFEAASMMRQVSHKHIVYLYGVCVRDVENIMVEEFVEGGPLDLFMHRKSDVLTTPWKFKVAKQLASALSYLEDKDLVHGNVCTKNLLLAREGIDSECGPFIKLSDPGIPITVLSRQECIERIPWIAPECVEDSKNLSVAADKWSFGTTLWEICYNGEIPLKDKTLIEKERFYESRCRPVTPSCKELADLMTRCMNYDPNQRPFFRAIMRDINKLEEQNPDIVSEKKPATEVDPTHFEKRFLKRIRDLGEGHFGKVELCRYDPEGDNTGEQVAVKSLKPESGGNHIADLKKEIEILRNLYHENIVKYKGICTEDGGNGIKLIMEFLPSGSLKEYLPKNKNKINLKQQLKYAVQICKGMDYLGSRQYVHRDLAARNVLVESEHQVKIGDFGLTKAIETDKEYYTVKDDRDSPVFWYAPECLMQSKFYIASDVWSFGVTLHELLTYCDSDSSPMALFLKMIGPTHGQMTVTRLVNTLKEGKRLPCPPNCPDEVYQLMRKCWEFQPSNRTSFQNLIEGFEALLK
(§2) A panel of four LanthaScreen JAK biochemical assays (JAK1, 2, 3 and Tyk2) were carried in a common kinase reaction buffer (50 mM HEPES, pH 7.5, 0.01% Brij-35, 10 mM MgCl2, and 1 mM EGTA). Recombinant GST-tagged JAK enzymes and a GFP-tagged STAT1 peptide substrate were obtained from Life Technologies.
(§3) Serially diluted compounds were pre-incubated with each of the four JAK enzymes and the substrate in white 384-well microplates (Corning) at ambient temperature for 1 h. ATP was subsequently added to initiate the kinase reactions in 10 μL total volume, with 1% DMSO. […] The plates were allowed to incubate at ambient temperature for 1 h before being read on the EnVision reader (Perkin Elmer).
(§4) For dose-response analysis, percent inhibition data were plotted vs. compound concentrations, and IC50 values were determined from a 4-parameter robust fit model with the Prism software (GraphPad Software). Results were expressed as pIC50 (negative logarithm of IC50) and subsequently converted to pKi (negative logarithm of dissociation constant, Ki) using the Cheng-Prusoff equation.

Test [4] has as its target JAK3 (Homo sapiens (Human), UniProt P52333). The test can be described thus: Biochemical JAK kinase assay (LanthaScreen), JAK3. As to conditions: converted from pIC50 with Cheng-Prusoff equation. The protocol:
as §1, §2, §3, §4

JAK3, sequence (P52333 whole entry): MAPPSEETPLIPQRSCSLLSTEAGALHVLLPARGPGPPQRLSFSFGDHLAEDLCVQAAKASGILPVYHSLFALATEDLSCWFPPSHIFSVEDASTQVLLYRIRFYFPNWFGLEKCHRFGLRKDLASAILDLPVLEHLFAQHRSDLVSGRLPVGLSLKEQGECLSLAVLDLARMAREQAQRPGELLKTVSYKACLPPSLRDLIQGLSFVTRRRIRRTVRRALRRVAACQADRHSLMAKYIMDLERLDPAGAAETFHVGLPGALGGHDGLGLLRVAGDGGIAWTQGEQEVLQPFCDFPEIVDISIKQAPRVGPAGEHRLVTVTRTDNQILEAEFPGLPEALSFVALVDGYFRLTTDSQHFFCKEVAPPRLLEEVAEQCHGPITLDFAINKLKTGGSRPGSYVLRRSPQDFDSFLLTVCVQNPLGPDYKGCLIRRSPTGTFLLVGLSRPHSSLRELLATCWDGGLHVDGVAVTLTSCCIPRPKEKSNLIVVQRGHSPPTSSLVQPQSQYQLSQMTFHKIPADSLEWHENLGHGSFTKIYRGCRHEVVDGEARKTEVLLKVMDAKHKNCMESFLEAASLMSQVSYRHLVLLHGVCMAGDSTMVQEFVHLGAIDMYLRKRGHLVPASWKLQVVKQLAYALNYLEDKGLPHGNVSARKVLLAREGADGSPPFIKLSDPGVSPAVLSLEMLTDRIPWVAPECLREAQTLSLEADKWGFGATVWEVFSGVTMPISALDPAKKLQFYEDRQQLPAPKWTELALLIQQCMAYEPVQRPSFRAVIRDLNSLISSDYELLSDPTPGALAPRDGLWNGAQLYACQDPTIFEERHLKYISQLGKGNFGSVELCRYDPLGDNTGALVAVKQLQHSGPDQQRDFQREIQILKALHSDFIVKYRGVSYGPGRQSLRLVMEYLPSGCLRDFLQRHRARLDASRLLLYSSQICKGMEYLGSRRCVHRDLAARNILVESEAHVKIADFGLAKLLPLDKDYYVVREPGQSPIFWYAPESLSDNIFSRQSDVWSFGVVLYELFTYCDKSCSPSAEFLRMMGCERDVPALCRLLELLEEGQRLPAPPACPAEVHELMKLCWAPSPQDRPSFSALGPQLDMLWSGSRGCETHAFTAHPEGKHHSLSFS

`CCCN1Cc2[nH]c(-c3n[nH]c4cc(-c5cc(F)c(O)cc5CC)ccc34)nc2C[C@@H]1C(=O)N1CC(C)(N(C)C)C1` [Example 8-19] returned a half-maximal inhibitory concentration (IC50) in test [1] (Homo sapiens) of 8 nM.

For the compound `CCCN1Cc2[nH]c(-c3n[nH]c4cc(-c5cc(F)c(O)cc5CC)ccc34)nc2C[C@H]1C(=O)N1CC(C)(N(C)C)C1` [Example 8, (S)-(3-(dimethylamino)-3-methylazetidin-1-yl)(2-(6-(2-ethyl-5-fluoro-4-hydroxyphenyl)-1H-indazol-3-yl)-5-propyl-4,5,6,7-tetrahydro-3H-imidazo[4,5-c]pyridin-6-yl)methanone], the IC50 in test [1] (Homo sapiens) was 8.5 nM. Further, in test [2], the “pSTAT6 inhibition Assay 4” value is “B (B represents between 40% and 60% inhibition)”.

With `CCc1cc(O)c(F)cc1-c1ccc2c(-c3nc4c([nH]3)CN(C(C)C)[C@H](C(=O)N3CC(N(C)C)C3)C4)n[nH]c2c1` [Example 8-7], the Ki came to 0.06 nM in test [3] and 0.2 nM in test [4]. This compound showed an IC50 in test [1] of 3.1 nM. Moreover, in test [2], the “pSTAT6 inhibition Assay 4” value is “B (B represents between 40% and 60% inhibition)”.

In test [3], `CCc1cc(O)c(F)cc1-c1ccc2c(-c3nc4c([nH]3)CN(C)[C@H](C(=O)N3CC(N(C)C)C3)C4)n[nH]c2c1` [Example 8-2] had a Ki of 0.06 nM. Further, inhibition in test [1] was half-maximal at 12.6 nM (IC50).

Take `CCc1cc(O)c(F)cc1-c1ccc2c(-c3nc4c([nH]3)CN(CC)[C@@H](C(=O)N3CC(C)(N(C)C)C3)C4)n[nH]c2c1` [Example 8-21]: in test [1] (Homo sapiens), the IC50 turned out to be 4 nM. That is a single-digit nanomolar value.

With `CCc1cc(O)c(F)cc1-c1ccc2c(-c3nc4c([nH]3)CN(C(C)C)[C@H](C(=O)N3CC(N5CCCCC5)C3)C4)n[nH]c2c1` [Example 8-6], affinity in test [3] was put at a Ki of 0.06 nM. In addition, the IC50 in test [1] stood at 15.8 nM.

On to `CCc1cc(O)c(F)cc1-c1ccc2c(-c3nc4c([nH]3)CN(C(C)C)[C@@H](C(=O)N3CC(N(C)C)C3)C4)n[nH]c2c1` [Example 8-17], for which, in test [4], the affinity, expressed as Ki, was 0.13 nM. Also, in test [1], half-maximal inhibition (IC50) was put at 8 nM.

`CCc1cc(O)c(F)cc1-c1ccc2c(-c3nc4c([nH]3)CN(C(C)C)[C@@H](C(=O)N3CC(C)(N(C)C)C3)C4)n[nH]c2c1` [Example 8-18]: the IC50 in test [1] (Homo sapiens) was determined as 4 nM.

`CCc1cc(O)c(F)cc1-c1ccc2c(-c3nc4c([nH]3)CN(CC)C(C(=O)N3CC(N5CCCCC5)C3)C4)n[nH]c2c1` (racemic) [Example 8-4] yielded an IC50 in test [1] of 10 nM.

Take `CCc1cc(O)c(F)cc1-c1ccc2c(-c3nc4c([nH]3)CN(CC)C(C(=O)N3CC(N(C)C)C3)C4)n[nH]c2c1` (stereo not drawn) [Example 8-8]: the Ki in test [4] was found to be 0.28 nM. For the same compound, in test [1], the IC50 stood at 5 nM.

Take `CCc1cc(O)c(F)cc1-c1ccc2c(-c3nc4c([nH]3)CN(C)C(C(=O)N3CC(C)(N(C)C)C3)C4)n[nH]c2c1` (stereo not drawn) [Example 8-9]: the Ki in test [3] amounted to 0.05 nM; in test [4], 0.16 nM. In test [1] (Homo sapiens), half-maximal inhibition (IC50) required 7.1 nM.

In turn, `CCc1cc(O)c(F)cc1-c1ccc2c(-c3nc4c([nH]3)CN(CC)[C@@H](C(=O)N3CC(N(C)C)C3)C4)n[nH]c2c1` [Example 8-20] had a Ki in test [4] of 0.2 nM. Further, the IC50 in test [1] amounted to 5 nM.

The compound `CCc1cc(O)c(F)cc1-c1ccc2c(-c3nc4c([nH]3)CN(C)[C@H](C(=O)N3CC(N5CCCCC5)C3)C4)n[nH]c2c1` [Example 8-1] yielded a Ki in test [3] of 0.06 nM. Besides, it took 6.3 nM to reach half-maximal inhibition in test [1] (IC50).

For the compound `CCc1cc(O)c(F)cc1-c1ccc2c(-c3nc4c([nH]3)CN(C(C)C)[C@H](C(=O)N3CC(C)(N(C)C)C3)C4)n[nH]c2c1` [Example 8-16], the IC50 in test [1] (Homo sapiens) amounted to 5 nM. In other words, the single-digit nanomolar range.

Consider `CCc1cc(O)c(F)cc1-c1ccc2c(-c3nc4c([nH]3)CN(CC)[C@H](C(=O)N3CC(N(C)C)C3)C4)n[nH]c2c1` [Example 8-22, (S)-(3-(dimethylamino)azetidin-1-yl)(5-ethyl-2-(6-(2-ethyl-5-fluoro-4-hydroxyphenyl)-1H-indazol-3-yl)-4,5,6,7-tetrahydro-3H-imidazo[4,5-c]pyridin-6-yl)methanone], for which the affinity in test [4], expressed as Ki, was 0.32 nM. In test [1] (Homo sapiens), this compound registered an IC50 of 5.25 nM. The “pSTAT6 inhibition Assay 4” value in test [2] was “B (B represents between 40% and 60% inhibition)”.

In the case of `CCc1cc(O)c(F)cc1-c1ccc2c(-c3nc4c([nH]3)CN(C(C)C)C(C(=O)N3CC(C)(N(C)C)C3)C4)n[nH]c2c1` (stereo not drawn) [Example 8-16], the “pSTAT6 inhibition Assay 4” value in test [2] is “C (C represents between 25% and 40% inhibition)”.

Compound `CCCN1Cc2[nH]c(-c3n[nH]c4cc(-c5cc(F)c(O)cc5CC)ccc34)nc2CC1C(=O)N1CC(C)(N(C)C)C1` (stereo not drawn) [Example 8-11] returned an IC50 in test [1] (Homo sapiens) of 6.3 nM.

`CCc1cc(O)c(F)cc1-c1ccc2c(-c3nc4c([nH]3)CN(C(C)C)C(C(=O)N3CC(C)(N(C)C)C3)C4)n[nH]c2c1` (stereo not drawn) [Example 8-12] came in with an inhibitory constant (Ki) in test [3] of 0.06 nM. This compound also showed an IC50 in test [1] (Homo sapiens) of 4 nM.

Turning to `CCc1cc(O)c(F)cc1-c1ccc2c(-c3nc4c([nH]3)CN(CC)C(C(=O)N3CC(C)(N(C)C)C3)C4)n[nH]c2c1` (stereo not drawn) [Example 8-10], in test [1] (Homo sapiens), inhibition was half-maximal at 3.2 nM (IC50). This counts as single-digit nanomolar.

In the case of `CCc1cc(O)c(F)cc1-c1ccc2c(-c3nc4c([nH]3)CN(CC)[C@H](C(=O)N3CC(N5CCCCC5)C3)C4)n[nH]c2c1` [Example 8-14, (S)-(5-ethyl-2-(6-(2-ethyl-5-fluoro-4-hydroxyphenyl)-1H-indazol-3-yl)-4,5,6,7-tetrahydro-3H-imidazo[4,5-c]pyridin-6-yl)(3-(piperidin-1-yl)azetidin-1-yl)methanone], the IC50 in test [1] (Homo sapiens) stood at 12.6 nM. Compared with the last compound, the IC50 is about 3.9-fold higher.

As for `CCc1cc(O)c(F)cc1-c1ccc2c(-c3nc4c([nH]3)CN(CC)[C@H](C(=O)N3CC(C)(N(C)C)C3)C4)n[nH]c2c1` [Example 8-23, (S)-(3-(dimethylamino)-3-methylazetidin-1-yl)(5-ethyl-2-(6-(2-ethyl-5-fluoro-4-hydroxyphenyl)-1H-indazol-3-yl)-4,5,6,7-tetrahydro-3H-imidazo[4,5-c]pyridin-6-yl)methanone], the IC50 in test [1] (Homo sapiens) turned out to be 7.7 nM. In test [2], the “pSTAT6 inhibition Assay 4” value is “B (B represents between 40% and 60% inhibition)”.

As to `CCCN1Cc2[nH]c(-c3n[nH]c4cc(-c5cc(F)c(O)cc5CC)ccc34)nc2C[C@H]1C(=O)N1CC(N2CCCCC2)C1` [Example 8-5], in test [4], the Ki was found to be 0.2 nM. The same compound registered an IC50 in test [1] of 25.1 nM.
